US10239832B2, “N-(1-hydroxy-3-(pyrrolidinyl)propan-2-yl)pyrrolidine-3-carboxamide derivatives as glucosylceramide synthase inhibitors” (BIOMARIN PHARMACEUTICAL INC., priority 2013, dated 2019)

Target: T1, GCS (Canis lupus familiaris, UniProt A0A8I3MXG6)
T1 construct: endogenous in cells; host or cells: MDCK (Madin-Darby canine kidney) cells, whole-cell lysate
T1 sequence (A0A8I3MXG6 1-394): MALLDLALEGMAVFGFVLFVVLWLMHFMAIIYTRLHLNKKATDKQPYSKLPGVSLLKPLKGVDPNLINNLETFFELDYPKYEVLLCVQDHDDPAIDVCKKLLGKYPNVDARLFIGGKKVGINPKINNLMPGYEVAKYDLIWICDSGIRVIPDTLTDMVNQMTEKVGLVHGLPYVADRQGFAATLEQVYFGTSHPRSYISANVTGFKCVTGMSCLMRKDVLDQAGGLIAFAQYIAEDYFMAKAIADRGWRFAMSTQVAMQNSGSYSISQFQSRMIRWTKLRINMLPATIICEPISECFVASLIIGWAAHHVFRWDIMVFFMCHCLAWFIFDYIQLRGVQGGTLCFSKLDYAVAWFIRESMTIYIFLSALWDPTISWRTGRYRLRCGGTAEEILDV
Test: GCS enzymatic assay (MDCK cell lysate, NBD-ceramide to glucosylceramide, LC/MS)
Type: biochemical, canine
Settings: Table 2; class symbols A, B, C; the table does not say which of the assays; read-out: Data Range (IC50 values)
How it was run: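 Dog MDCK cell lysate served as enzyme source, with NBD-ceramide turned over to glucosylceramide and 0.1% DMSO as mock control. The reaction was stopped with acetonitrile. Both lipids were quantified by LC/MS/MS in ESI positive MRM mode against a tolbutamide internal standard, giving IC50 or percent inhibition.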

Compound	IC50 [nM]
O=C(N[C@H](CN1CCCC1)[C@H](O)c1ccc(OC2CC2)cc1)[C@@H]1CCN(c2ccc(Cl)cc2)C1 [Compound 155, (R)-1-(4-chlorophenyl)-N-((1R,2R)-1-(4-cyclopropoxyphenyl)-1-hydroxy-3-(pyrrolidin-1-yl)propan-2-yl)pyrrolidine-3-carboxamide]	1 to 30
CC(C)(C)c1ccc(N2CC[C@@H](C(=O)N[C@H](CN3CCCC3)[C@H](O)c3cc(F)c4c(c3)OCCO4)C2)cc1 [Compound 142, (R)-1-(4-(tert-butyl)phenyl)-N-((1R,2R)-1-(8-fluoro-2,3-dihydrobenzo[b][1,4]dioxin-6-yl)-1-hydroxy-3-(pyrrolidin-1-yl)propan-2-yl)pyrrolidine-3-carboxamide]	30 to 100
O=C(N[C@H](CN1CCCC1)[C@H](O)c1ccc(OC2CC2)c(Cl)c1)[C@@H]1CCN(c2ccc(Cl)c(-c3ccc(F)cc3)c2)C1 [Compound 138, (R)-1-(6-chloro-4′-fluoro-[1,1′-biphenyl]-3-yl)-N-((1R,2R)-1-(3-chloro-4-cyclopropoxyphenyl)-1-hydroxy-3-(pyrrolidin-1-yl)propan-2-yl)pyrrolidine-3-carboxamide]	30 to 100
Cc1cccc(Oc2cc(N3CC[C@@H](C(=O)N[C@H](CN4CCCC4)[C@H](O)c4ccc(OC5CC5)c(Cl)c4)C3)ccc2Cl)n1 [Compound 131, (R)-1-(4-chloro-3-((6-methylpyridin-2-yl)oxy)phenyl)-N-((1R,2R)-1-(3-chloro-4-cyclopropoxyphenyl)-1-hydroxy-3-(pyrrolidin-1-yl)propan-2-yl)pyrrolidine-3-carboxamide]	1 to 30
CC(C)(O)COc1ccc([C@@H](O)[C@@H](CN2CCCC2)NC(=O)[C@@H]2CCN(c3ccc4cc(F)ccc4c3)C2)cc1Cl [Compound 102, (R)-N-((1R,2R)-1-(3-chloro-4-(2-hydroxy-2-methylpropoxy)phenyl)-1-hydroxy-3-(pyrrolidin-1-yl)propan-2-yl)-1-(6-fluoronaphthalen-2-yl)pyrrolidine-3-carboxamide]	1 to 30
O=C(N[C@H](CN1CCCC1)[C@H](O)c1ccc2c(c1)OCCO2)[C@@H]1CCN(c2ccc3cc(Cl)sc3c2)C1 [Compound 76, (R)-1-(2-chlorobenzo[b]thiophen-6-yl)-N-((1R,2R)-1-(2,3-dihydrobenzo[b][1,4]dioxin-6-yl)-1-hydroxy-3-(pyrrolidin-1-yl)propan-2-yl)pyrrolidine-3-carboxamide]	30 to 100
O=C(N[C@H](CN1CCCC1)[C@H](O)c1ccc2c(c1)OCCO2)[C@@H]1CCN(c2ccc3cc(Cl)ccc3n2)C1 [Compound 99, (R)-1-(6-chloroquinolin-2-yl)-N-((1R,2R)-1-(2,3-dihydrobenzo[b][1,4]dioxin-6-yl)-1-hydroxy-3-(pyrrolidin-1-yl)propan-2-yl)pyrrolidine-3-carboxamide]	1 to 30
O=C(N[C@H](CN1CCCC1)[C@H](O)c1ccc(OC2COC2)c(Cl)c1)[C@@H]1CCN(c2ccc3cc(F)ccc3c2)C1 [Compound 117, (R)-N-((1R,2R)-1-(3-chloro-4-(oxetan-3-yloxy)phenyl)-1-hydroxy-3-(pyrrolidin-1-yl)propan-2-yl)-1-(6-fluoronaphthalen-2-yl)pyrrolidine-3-carboxamide]	1 to 30

Same assay, conditions: Table 2; class symbols D, E, F, NA (not active); the table does not say which of the assays

Compound	Data Range (% inhibition)
O=C(N[C@H](CN1CCCC1)[C@H](O)c1ccc2c(c1)OCCO2)C1CCN(c2ccc3cc(F)ccc3c2)C1 (stereo in doubt) [Compound 14D, (R)-N-((1R,2R)-1-(2,3-dihydrobenzo[b][1,4]dioxin-6-yl)-1-hydroxy-3-(pyrrolidin-1-yl)propan-2-yl)-1-(6-fluoronaphthalen-2-yl)pyrrolidine-3-carboxamide]	F (1-49% (or less than 50%))
O=C(N[C@H](CN1CCCC1)[C@H](O)c1ccc2c(c1)OCCO2)[C@H]1CCN(c2ccnc(OC3CC3)c2)C1 [Compound 56E, (S)-1-(2-cyclopropoxypyridin-4-yl)-N-((1R,2R)-1-(2,3-dihydrobenzo[b][1,4]dioxin-6-yl)-1-hydroxy-3-(pyrrolidin-1-yl)propan-2-yl)pyrrolidine-3-carboxamide]	F (1-49% (or less than 50%))
CC1(C)CCc2ccc(N3CC[C@H](C(=O)N[C@H](CN4CCCC4)[C@H](O)c4ccc5c(c4)OCCO5)C3)cc2O1 [Compound 71F, (S)-N-((1R,2R)-1-(2,3-dihydrobenzo[b][1,4]dioxin-6-yl)-1-hydroxy-3-(pyrrolidin-1-yl)propan-2-yl)-1-(2,2-dimethylchroman-7-yl)pyrrolidine-3-carboxamide]	F (1-49% (or less than 50%))
O=C(N[C@H](CN1CCCC1)[C@H](O)c1ccc(OC2CC2)c(F)c1)[C@H]1CCN(c2ccc(F)cc2)C1 [Compound 69A, (S)-N-((1R,2R)-1-(4-cyclopropoxy-3-fluorophenyl)-1-hydroxy-3-(pyrrolidin-1-yl)propan-2-yl)-1-(4-fluorophenyl)pyrrolidine-3-carboxamide]	F (1-49% (or less than 50%))
O=C(N[C@H](CN1CCCC1)[C@H](O)c1ccc(OC2CC2)c(Cl)c1)C1CCN(c2ccc(OC(F)(F)F)cc2)C1 (stereo partly drawn) [Compound 10, N-((1R,2R)-1-(3-chloro-4-cyclopropoxyphenyl)-1-hydroxy-3-(pyrrolidin-1-yl)propan-2-yl)-1-(4-(trifluoromethoxy)phenyl)pyrrolidine-3-carboxamide]	D (75-100%)
O=C(N[C@H](CN1CCCC1)[C@H](O)c1ccc(OCC(F)(F)F)nc1)[C@@H]1CCN(c2ccc(Cl)cc2)C1 [Compound 33, (R)-1-(4-chlorophenyl)-N-((1R,2R)-1-hydroxy-3-(pyrrolidin-1-yl)-1-(6-(2,2,2-trifluoroethoxy)pyridin-3-yl)propan-2-yl)pyrrolidine-3-carboxamide]	F (1-49% (or less than 50%))
O=C(N[C@H](CN1CCCC1)[C@H](O)c1ccc2c(c1)OCCO2)C1CCN(c2ccc(OC3CC3)c(Cl)c2)C1 (stereo partly shown) [Compound 20D]	E (50-74% (or less than 75%))
O=C(N[C@H](CN1CCCC1)[C@H](O)c1ccc(OC2COC2)c(Cl)c1)[C@@H]1CCN(c2ccc(Cl)cc2)C1 [Compound 59, (R)-N-((1R,2R)-1-(3-chloro-4-(oxetan-3-yloxy)phenyl)-1-hydroxy-3-(pyrrolidin-1-yl)propan-2-yl)-1-(4-chlorophenyl)pyrrolidine-3-carboxamide]	F (1-49% (or less than 50%))
